Test system: glycogen-phosphorylase (PYGL) gene expression
Assay: PYGL gene expression by qRT-PCR in Human Follicle Dermal Papilla Cells
Assay type: cell-based
Details: 6 μg/mL; serum-starved HFDPC, 24 h treatment; compared with positive control (starved cells), p<0.005
Description: The PromoCell® Human Follicle Dermal Papilla Cells (HFDPC) cell line was used to test the inhibitory activity on PYGL of maslinic acid and a Swertia chirata extract (dry extract on maltodextrins) alone or as a combination.
HFDPCs (DP; PromoCell GmbH, Heidelberg, Germany, batch 325Z017.1 and 322Z030.1) were grown in base culture medium (Follicle Dermal Papilla Cell Growth Medium) (PromoCell GmbH) supplemented with 4 μL/mL of bovine pituitary gland extract (Bovine Pituitary Extract), 0.04 mL/mL fetal serum, 1 ng/ml recombinant human fibroblast growth factor, 5 μg/mL recombinant human insulin (PromoCell). Cells were cultured with […] primocin (Invivogen, Toulouse, France, #ant-pm-2) in a humidified incubator with 5% CO2 at 37° C.
POSITIVE CONTROL: Cells treated in Follicle Dermal Papilla Cell Growth medium without serum (starved) under the same culture conditions.
NEGATIVE CONTROL: Untreated cells in Follicle Dermal Papilla Cell Growth medium under the same culture conditions.
PYGL gene expression was studied by RT-PCR.
When cells (HFDPC) reached about 80% confluence, they were detached with trypsin/EDTA and seeded at a density of 1×10^6 cells/mL into 12-well plates and incubated at 37° C., 5% CO2 (24 h). […]

CC1(C)CC[C@]2(C(=O)O)CC[C@]3(C)C(=CC[C@@H]4[C@@]5(C)C[C@@H](O)[C@H](O)C(C)(C)[C@@H]5CC[C@]43C)[C@@H]2C1 [maslinic acid, (2α,3β)-2,3-dihydroxyolean-12-en-28-oic acid]
inhibition of PYGL gene expression: significantly inhibit (p<0.005)

From patent US20260224470A1, “Composition For Improving The Aesthetic Appearance Of Hair And Skin Appendages” (priority 2023, published 2026)
